Experimental data taken from patent US12544392B2, “Treatment of adenovirus infection or disease associated with adenovirus infection” (SymBio Pharmaceuticals Limited, priority 2023, dated 2026).

How the values were obtained:
[1] = test system: adenovirus (AdV); experiment: Human clinical study on treatment of AdV infectious disease: viral load of AdV in plasma by real-time qPCR; type: in vivo; conditions: for time for the levels of viral load to reach below the LOD: overall
Description: A human clinical study on the treatment of adenovirus (AdV) infectious disease was conducted according to the following procedure.
Patients aged 2 months or older who have asymptomatic AdV infection or AdV disease, have an underlying immunocompromised state, and have AdV viremia at a high level, including hematopoietic stem cell transplant recipients before the immune reconstitution by the graft cells is achieved, organ transplant recipients on medication with an immunosuppressant, and patients with immunodeficiency syndrome (patients with 10,000 or more copies/ml in a sample, or patients with 1,000 or more copies/ml in two samples while the second viral load is greater than the first viral load).
The brincidofovir (BCV) infusion is a sterile aqueous solution containing 10 mg/mL BCV.
• Product name: Brincidofovir (BCV) • Dosage form: Solution for infusion • Unit dose: 10 mg/mL (1 mL per vial) • Route of administration: Intravenous (IV) infusion • Physical description: Clear, colorless solution in a sterile glass vial • Storage: Refrigerated (2-8° C.) • Dosing: Continuous IV drip infusion administered over a period of 2 hours twice weekly (on Days 1 and 4) 1.1.3 Dose • Cohort 1:0.2 mg/kg (if body weight≥50 kg, 10 mg/dose), twice weekly • Cohort 2:0.3 mg/kg (if body weight≥50 kg, 15 mg/dose), twice weekly • Cohort 3:0.4 mg/kg (if body weight≥50 kg, 20 mg/dose), twice weekly 1.1.4 Drug Administration
The dose of BCV 10 mg/mL solution for infusion is prepared based on the patient's body weight.
Preparation: Using a sterile syringe and needle, transfer 1 mL of IV BCV solution from one vial into a 100-mL glucose 5% IV bag to make a diluted dosing solution. For more than 10 mg/dose, prepare one additional diluted dosing solution in the same procedure mentioned above. Gently invert the bag at least 5 times to mix. Note: No vigorous shaking of the solution in a vial or the diluted dosing solution in a bag.
Administer the appropriate volume of diluted dosing solution based on the patient's body weight. Each dose is administered intravenously at a constant rate over 2 hours. Upon completion of the administration, the IV line is flushed with glucose 5% or dextrose 5% to ensure the IV line has been cleared of all active drug. If required per institutional practice, the flush of glucose 5% or dextrose 5% may be followed by a flush with normal saline. Diluted dosing solution should be prepared at the time of use in principle and should not be prepared the day before.
Subjects 101-12 of cohort 2, and 101-15, 101-18 and 110-06 of cohort 3 took cyclosporine, an immunosuppressive drug, during the treatment period (duration of treatment) of intravenous BCV. Prior PK studies in healthy subjects have shown a significant increase in plasma BCV exposure with concomitant intravenous infusion of BCV and cyclosporine. […] In view of the above, for the above patients taking cyclosporine, any of the doses indicated in 1.1.3 (cohorts 1-3) above is reduced to 60% for administration. Note that when cyclosporine is administered as BID (twice daily) oral or injectable form, the administration is conducted with an interval of 2 hours after the completion of intravenous BCV. In the case of continuous infusion of cyclosporine for 24 hours, no interval is needed.
The study duration is at least 9 weeks, based on a screening period of 1 week, a treatment period of at least 4 weeks, and post-treatment follow-up period of 30 days. In the screening, after informed consent has been obtained from the patients, a screening evaluation is conducted to determine eligibility for the study. On the first day of the first week of the treatment period, patients are assigned a dose based on the applicable cohort (see the section 1.1.3 Cohorts 1-3 above). The duration of treatment is a minimum of 4 weeks and a maximum of 14 weeks, and termination is based on the treatment stopping criteria as described below. […]

[2] = Analysis of lymphocytes: absolute lymphocyte count of a patient in cohort 3; type: in vivo, human; conditions: patient 110-05 in cohort 3 (0.4 mg/kg IV twice weekly)
Text: In the clinical study of Example 1, the absolute lymphocyte count in the plasma of the patient 110-05 in cohort 3 was examined.

[3] = Human clinical study of once-weekly IV BCV (Example 4): adverse events; type: in vivo; conditions: cohort 4: 0.4 mg/kg (20 mg/dose if body weight ≥50 kg) IV once weekly
Description: The study duration is at least 9 weeks, based on a screening period of 1 week, a treatment period of at least 4 weeks, and post-treatment follow-up period of 30 days. In the screening, after informed consent has been obtained from the patients, a screening evaluation is conducted to determine eligibility for the study. On the first day of the first week of the treatment period, patients are assigned a dose based on the applicable cohort (see the section 4.1.3 Cohorts 4-6 above). The duration of treatment is a minimum of 4 weeks and a maximum of 14 weeks, and termination is based on the treatment stopping criteria as described below. For patients who, at the physician's discretion, are assessed as being at high risk for AdV infection/recurrence of disease, the treatment period may be extended for up to 10 weeks, even after the 4-week treatment period is completed, if the AdV is not detected by the two most recent consecutive assays with an interval of 3 days at least. All patients are followed up for 30 days after the last dosing. Adverse events are evaluated according to the National Cancer Institute Common Terminology Criteria for Adverse Events (NCI CTCAE) version 5.0 (grade 1-5). In cohort 4, patients are enrolled in the initially planned dosing regimen of 0.4 mg/kg or 20 mg IV weekly. […]

[4] = cohort 1: 0.2 mg/kg IV twice weekly
[5] = cohort 3: 0.4 mg/kg IV twice weekly, of 10 cases

## CCCCCCCCCCCCCCCCOCCCOP(=O)(O)CO[C@H](CO)Cn1ccc(N)nc1=O [BCV, [(2S)-1-(4-amino-2-oxopyrimidin-1-yl)-3-hydroxypropan-2-yl]oxymethyl-(3-hexadecoxypropoxy)phosphinic acid]
[1]; cohort 1: 0.2 mg/kg (10 mg/dose if body weight ≥50 kg) IV twice weekly, plasma, LOD 25 copies/ml
  patients in whom the levels of viral load of AdV reached below the LOD: two
[1]; [4]
  cases with relapse among those that reached below the LOD: One
  patients who died: one
[1]; cohort 2: 0.3 mg/kg (15 mg/dose if body weight ≥50 kg) IV twice weekly, plasma, LOD 25 copies/ml
  patients in whom the levels of viral load of AdV reached below the LOD: 5 patients
[1]; cohort 2: 0.3 mg/kg IV twice weekly
  patients who died: one
[1]; cohort 2: 0.3 mg/kg IV twice weekly, the 5 cases
  time for the levels of viral load to reach below the LOD: longer time
[1]; cohort 3: 0.4 mg/kg (20 mg/dose if body weight ≥50 kg) IV twice weekly, plasma, LOD 25 copies/ml, all cases
  cases in which the levels of viral load of AdV reached below the LOD: 10 cases
[1]; cohort 3: 0.4 mg/kg IV twice weekly
  relapse or death: No patient relapsed or died
[1]; [5]
  patients whose levels of viral load reached below the LOD within 4 weeks: 8 patients
  remaining patients whose levels of viral load reached below the LOD at Week 5 and 6: 2 patients
[1]; cohort 3: 0.4 mg/kg IV twice weekly, the 10 cases
  time for the levels of viral load to reach below the LOD: shorter time
[1]; patient 110-05 in cohort 3 (0.4 mg/kg IV twice weekly)
  time at which the viral load of AdV was reduced to a level below the LOD: 3 Week
[2]
  number of lymphocytes (absolute lymphocyte count): tended to increase
[3]
  occurrence of adverse events: particularly suppressed
